Reference: publication PMC4189421, “Induction of Oligodendrocyte Differentiation and In Vitro Myelination by Inhibition of Rho-Associated Kinase” (ASN NEURO, 2014)
pEC50, pIC50: −log10 of the molar value. Like-named read-outs stand apart in the source and are kept apart here.

Legend:
[1] = system: cerebellar organotypic cultures; assay: Remyelination in lysolecithin-demyelinated cerebellar slices (qPCR of MBP, PLP, MOG); assay type: cell-based, rat; conditions: 10 µM, 10-day incubation post-lysolecithin, vs 0.1% DMSO
Experimental: In brief, after careful dissection to keep the tissue intact, cerebella of postnatal Days 4 to7 wild-type mouse pups were sectioned at 400 -µm thickness using a Leica VT1000S vibratome. […] When the slices were firmly attached, fresh medium was added to cover the tissue, and the cultures were maintained under these conditions for 4 days. […] Treatments with compounds were initiated at this point, and the cultures maintained for 4 to 10 additional days. Demyelination–remyelination was assessed by real-time polymerase chain reaction (PCR).
Total RNA was isolated from single-cell cultures or tissue explants using Tri-Zol reagent (Gibco). cDNA was generated from 1 to 3 µg of total RNA by Retrotranscriptase II (Gibco) reaction, and the selected transcripts were detected and amplified by quantitative RT-PCR in an Applied Biosystems (Grand Island, NY) 7500 fast qPCR machine, following the manufacturer’s instructions.

[2] = system: human pluripotent stem cell-derived OPCs (hSC-OPCs); assay: Human stem cell-derived OPC differentiation assay (O4 staining, ArrayScan); assay type: cell-based; conditions: for pEC50: Homo sapiens
Experimental: Human oligodendrocytes were generated by a proprietary methodology of […] (Weizmann Science Park, Nes-Ziona, Israel; […].com). In brief, 5,000 human embryonic stem cell-derived OPCs (hES-OPCs) were seeded in each well of Matrigel and PDL-coated 96-well black μClear plates (Greiner, Frickenhausen, Germany). […] Twenty-four hours after seeding, medium was removed, and 200 μl of DIF fresh medium containing the compound of interest at a specific dilution (in 0.1% DMSO) was supplemented to the cells (first feeding). Total volume for each well was 200 μl. Four replicates were used for each dose of compound under study. After 48 hr, the media were replenished by removing 100 μl of media, and the same amount of fresh DIF media was added to the wells. Only at the first feeding, DIF media with 0.1% DMSO were used as control of the compound in medium containing 0.1% DMSO. Two experimental sets were conducted for the differentiation assay. On Day 21, live staining of oligodendrocytes was done by incubating the cells with O4 antibody (R&D Systems, Minneapolis, MN) for 20 min followed by detection with goat anti-mouse IgM-FITC (Chemicon) for additional 20 min. Cells were washed twice using DIF media. Immediately after, cells were fixed using 4% paraformaldehyde, and then washed with 1 × PBS, and 4',6-diamidino-2-phenylindole (DAPI; Sigma) was used for nuclear staining. […] Cellomics Neural profiling bioapplication was used for processing and analyzing the images. The 4-parameter Hill-Slope curve fittings were generated by GraphPad Prism software using the least squares fitting method, and EC50 values were calculated for the three major parameters of oligodendrocyte differentiation: number of differentiated oligodendrocytes, number of oligodendrocyte processes, and oligodendrocytes processes length (μm). The negative control groups of each experimental set were used for data normalization. We additionally studied the effect of ROCK inhibition in cultures of OPCs of human origin. […]

[3] = system: mouse neurosphere-derived oligodendrocyte precursor cells (Nph-OPCs); assay: Morphology-based OPC differentiation assay (branches, outgrowth; high-content imaging); assay type: cell-based; conditions: Mus musculus, Oligodendrocyte precursor cell, 72 h, read-out: IC50, generation of branches in OPC differentiation assay
Experimental: Neurospheres (Nph) were prepared from embryos at 14.5 days of gestation obtained from timed pregnant females of C57/Bl6 mice, as previously described ([Kornblum, Yanni, Easterday, & Seroogy, 2000]; [Pedraza, Monk, Lei, Hao, & Macklin, 2008]). In brief, after separation of meninges and cerebellum, cerebrum tissue was mechanically triturated with a 1-ml micropipette until total tissue dissociation was achieved, filtered through a 70 -µm cell strainer (Fisher Scientific, Pittsburgh, PA), and plated in 25-cm^2 plastic culture flasks (2 brains/flask). Nph proliferation media (NPM) consisted of Dulbecco’s Modified Eagle Medium (DMEM)/F12, B27 neuronal supplement (Gibco, Baltimore, MD) and 10 ng/ml […] (EGF; Sigma, St. Louis, MO). After 48 to 72 hr, floating Nphs were passaged at a 1 : 1 ratio into 75-cm^2 culture flasks. After a further 48 to 72 hr, they were passaged into 150-cm^2 flasks. Subsequent passages were performed every 3 to 4 days at a ratio of 1 : 2 or 1 : 3 in the same media, and Nph were used to generate OPCs for no more than 12 passages.
OPCs were generated by chemical disaggregation of Nph with a mouse neural progenitor dissociation kit following the manufacturer instructions (NeuroCult, StemCell Technologies, AB, Canada). The single-cell suspension was then filtered through a 40 -µm cell strainer and plated on poly-D-lysine (PDL)-coated plates. […]
To determine the effects of ROCK inhibition on OPCs, we developed a high-content image morphological analysis of OPC differentiation using mouse embryonic neural progenitor-derived OPCs (Nph-OPCs). […] Four images per well were analyzed using a neurite outgrowth module (Molecular Devices, Sunnyvale, CA). We quantified the number of branches and total outgrowth per cell (Figure 1). […] Additionally, nuclear staining by Hoechst allowed the accurate association of branches and processes to their corresponding cell bodies and permitted quantification of total cell numbers in each well.

C[C@@H](N)[C@H]1CC[C@H](C(=O)Nc2ccncc2)CC1.Cl.Cl [Y0503, trans-4-[(1 R)-1-aminoethyl]-N-4-pyridinylcyclohexanecarboxamide dihydrochloride]
Expression of MBP, PLP, MOG mRNAs in demyelinated cerebellar slices (qPCR) [1]: significant increase
pEC50 ([2]; read-out: OLs processes count / well EC50): 7.05
pEC50 ([2]; read-out: OLs processes total length / well EC50): 6.86
Differentiation into O4-positive premyelinating stage ([2]; hSC-OPCs treated 48 hr, 21 days culture): dose-response differentiation effect
pIC50 [3]: 5.57
